The subject of test [1] is Pseudomonas aeruginosa ST773. Kind of test: MIC determination, fixed concentration of sBLI (Examples 19-26). The test is classed as cell-based. To be noted: NDM-1, OXA-395, PDC-16, caMHB. How it is done: Antimicrobial susceptibility testing (AST) by broth microdilution (MIC determination) was performed according to The European Committee on Antimicrobial Susceptibility Testing (EUCAST) guidelines (see Reading guide for broth microdilution Version 5.0, 2024: https://www.eucast.org).
For combinations containing meropenem as the antibiotic, Sensititre™ FINMER meropenem 64-0.03 μg/mL plates (Thermo Fischer Diagnostics custom plates; YFINMER) were used in most of the experiments. For other antibiotics (and for meropenem whenever a higher start concentration than 64 μg/mL was needed) sterile clear round bottom polystyrene (non-treated) 96-well microplates (Corning 3788) were used for making serial two-fold dilutions of the antibiotic in cation-adjusted Mueller Hinton II broth (caMHB; Thermo Scientific, T3462, containing 29.4 μM Zn^2+ or MILLIPORE, 90922-500G, containing 5.6 μM Zn^2+), across the columns of the microtiter plate (128-0.06 μg/mL; columns 1-12).
The checkerboard plates were all modified by adding a serine β-lactamase inhibitor (sBLI) at a fixed concentration of 16 μg/mL. Additionally, the zinc chelator was added at various fixed concentrations. Samples were mixed so that all plates contained a control containing antibiotic alone (no sBLI, no zinc chelator), a sample containing antibiotic and sBLI (double combination; no zinc chelator), and a sample containing antibiotic, sBLI and zinc chelator (triple combination). All test wells used in each plate contained growth medium (caMHB), and inoculated bacteria at a final inoculum between 3-7×10^5 CFU/mL. […] Synergy for the triple combination (antibiotic, sBLI, and zinc chelator) was defined as when the MIC in any of the rows containing the zinc chelator in combination with antibiotic and sBLI (triple combination), was lower than for antibiotic alone and lower than for the antibiotic and sBLI double combination.
An X in rows 1~4 in the table indicates growth of the bacterial inoculum, while a blank cell indicates no growth. Concentrations (μg/mL) of MEM are given in row 0. TAZ and the zinc chelator were added in fixed concentrations (TAZ at 16 μg/mL in rows 2-4, zinc chelator at 16 μg/mL in row 3 and at 8 μg/mL in row 4). As a control, the effect of MEM alone was tested (row 1). All wells contained bacterial growth medium (caMHB, 29.4 μM Zn^2+) and were inoculated with the test bacterium. The grey cells indicate the meropenem MIC.
An X in rows 1~4 in the table indicates growth of the bacterial inoculum, while a blank cell indicates no growth. Concentrations (μg/mL) of AZT are given in row 0. AVI and the zinc chelator were added in fixed concentrations (AVI at 16 μg/mL in rows 2-4, zinc chelator at 16 μg/mL in row 3 and at 8 μg/mL in row 4). As a control, the effect of AZT alone was tested (row 1). All wells contained bacterial growth medium (caMHB, 29.4 μM Zn^2+) and were inoculated with the test bacterium. The grey cells indicate the aztreonam MIC.
Two technical replicates were performed for each sample. An X in rows 1-8 in the table indicates growth of the bacterial inoculum, while a blank cell indicates no growth. Concentrations (μg/mL) of PIP are given in row 0. AVI and the zinc chelator were added in fixed concentrations (AVI at 16 μg/mL in rows 3-8, zinc chelator at 16 μg/mL in rows 5-6 and at 8 μg/mL in rows 7-8). As a control, the effect of PIP alone was tested (rows 1-2). All wells contained bacterial growth medium (caMHB, 29.4 μM Zn^2+) and were inoculated with the test bacterium. The grey cells indicate the piperacillin MIC.
An X in rows 1~4 in the table indicates growth of the bacterial inoculum, while a blank cell indicates no growth. Concentrations (μg/mL) of PIP are given in row 0. TAZ and the zinc chelator were added in fixed concentrations (TAZ at 16 μg/mL in rows 2-4, zinc chelator at 16 μg/mL in row 3 and at 8 μg/mL in row 4). As a control, the effect of PIP alone was tested (row 1). […]

The test system of test [2] is K. pneumoniae K66-45 (NDM-1). Kind of test: MIC determination of meropenem with zinc chelator at varying zinc concentrations in the medium (Example 31). The test is classed as cell-based, Klebsiella pneumoniae. How it is done: An experiment was conducted to determine the Minimal Inhibitory Concentration (MIC) of meropenem (MEM) in combination with the zinc chelator according to Example 26 of WO 2018/033719 at varying concentrations of zinc in the medium. The medium was a Mueller Hinton broth from Thermo Fischer. The zinc content was measured as 5.6 μM using ICP-MS. The concentration of zinc in the plasma of healthy animals has been determined to be close to this value. In infectious tissue, the zinc concentration is below the limit of detection (see, for example Bilinskaya et al., Am. Soc. For Microbiology (2020), 58, pages 1-8). Zinc sulfate was then added to this broth to obtain three further concentrations: 15.6 μM, 25.6 μM and 35.6 μM of zinc, keeping all other parameters constant.
As a model bacterial strain for this experiment, the MIC of MEM vs. K. pneumoniae K66-45 (NDM-1) was then determined in broth containing the four concentrations of zinc following the protocol given in Example 1. The EUCAST MIC value for MEM alone (EUCAST: standardization organization for MIC values of antibiotics) is 4-8 μM, meaning that if a bacterial strain is inhibited at lower concentrations than the MIC value, the bacterial strain is sensitive(S) to MEM. Correspondingly, if the bacterial strain is not inhibited at MIC or lower, the strain is resistant (R). If the inhibition is within the MIC range 4-8 μM, the resistance is intermediate (I).

The structures appear in SMILES notation. Values joined by “and” are separate entries in the source; they are usually repeats but may differ in a detail not shown here. Equal entries are not always repeated.

As to `CN(C[C@H](O)[C@@H](O)[C@H](O)[C@H](O)CO)C(=O)c1ccc(CN(Cc2ccccn2)Cc2ccccn2)nc1` [zinc chelator], the “Synergy with the zinc chelator observed at concentration” value in test [1] (Example 19, with MEM and TAZ 16 μg/mL, 29.4 μM Zn2+) was 16 µg/mL; in test [1] (Example 20, with AZT and AVI 16 μg/mL, 29.4 μM Zn2+) it was 16 µg/mL; in test [1] (Example 21, with PIP and AVI 16 μg/mL, 29.4 μM Zn2+, 8 μg/mL for one replicate only, other replicate not interpretable) it was 16 µg/mL and 8 µg/mL; in test [1] (Example 22, with PIP and TAZ 16 μg/mL, 29.4 μM Zn2+), 16 µg/mL; in test [1] (Example 24, with MEM and TAZ 16 μg/mL, 5.6 μM Zn2+, 16 and 4 μg/ml not interpretable according to EUCAST), 8 µg/mL; in test [1] (Example 26, with PIP and TAZ 16 μg/mL, 5.6 μM Zn2+, 16 μg/mL not interpretable according to EUCAST) it was 8 µg/mL and 4 µg/mL. Further, the “sensitivity of the strain” value in test [2] (printed: "at 4-8 μM when used tested at a concentration 4 μM", with MEM) is listed as “sensitive”. Besides, the “effect against the bacterial strain” value in test [2] (zinc chelator 16 μM with MEM, highest concentration of zinc (35.6 μM)) was “ineffective”.

For the origin of these results see US20260306526A1, “COMBINATION THERAPY FOR BACTERIAL INFECTIONS COMPRISING ZINC-CHELATOR, BETA-LACTAM ANTIBIOTIC AND SERINE BETA-LACTAMASE INHIBITOR” (priority 2023, published 2026).
